Data: ChEMBL document CHEMBL1137556, “Synthetic studies of neoclerodane diterpenes from Salvia divinorum: exploration of the 1-position” (Bioorg Med Chem Lett, 2007)

Assays:
[1] = molecular target: Delta-type opioid receptor (Homo sapiens) (UniProt P41143)
Description: Antagonist activity at human cloned delta opioid receptor assessed as inhibition of DPDPE-stimulated [35S]GTPgammaS binding

[2] = molecular target: T1, Kappa-type opioid receptor (Homo sapiens, UniProt P41145)
Description: Antagonist activity at human cloned kappa opioid receptor assessed as inhibition of DAMGO-stimulated [35S]GTP-gamma-S binding

[3] = molecular target: T1, Kappa-type opioid receptor; remark: listed apart in the source
Description: Antagonist activity at human cloned kappa opioid receptor assessed as inhibition of U69,593-stimulated [35S]GTP-gamma-S binding

[4] = molecular target: T1, Kappa-type opioid receptor; test: Efficacy at human kappa opioid receptor assessed as inhibition of Galpha-16-induced calcium flux relative to U69,593; type: functional
[5] = molecular target: T1, Kappa-type opioid receptor; test: Agonist activity at human kappa opioid receptor by [35S]GTPgammaS binding assay; type: functional
[6] = molecular target: T1, Kappa-type opioid receptor; test: Efficacy at human kappa opioid receptor by [35S]GTPgammaS binding assay relative to U69,593; type: functional
[7] = molecular target: T1, Kappa-type opioid receptor; test: Agonist activity at human kappa opioid receptor assessed as inhibition of Galpha-16-induced calcium flux; type: functional

Delta-type opioid receptor (Homo sapiens), sequence (P41143 whole entry): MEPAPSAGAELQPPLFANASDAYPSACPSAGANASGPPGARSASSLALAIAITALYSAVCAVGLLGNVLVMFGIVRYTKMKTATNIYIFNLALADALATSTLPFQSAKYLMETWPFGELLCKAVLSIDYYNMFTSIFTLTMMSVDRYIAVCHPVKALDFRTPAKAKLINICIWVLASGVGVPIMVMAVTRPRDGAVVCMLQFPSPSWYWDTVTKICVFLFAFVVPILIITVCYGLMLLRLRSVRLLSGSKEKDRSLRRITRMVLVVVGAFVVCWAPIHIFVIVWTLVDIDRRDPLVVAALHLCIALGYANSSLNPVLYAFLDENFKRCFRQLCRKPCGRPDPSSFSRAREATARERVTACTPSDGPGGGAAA
T1 sequence (P41145 whole entry): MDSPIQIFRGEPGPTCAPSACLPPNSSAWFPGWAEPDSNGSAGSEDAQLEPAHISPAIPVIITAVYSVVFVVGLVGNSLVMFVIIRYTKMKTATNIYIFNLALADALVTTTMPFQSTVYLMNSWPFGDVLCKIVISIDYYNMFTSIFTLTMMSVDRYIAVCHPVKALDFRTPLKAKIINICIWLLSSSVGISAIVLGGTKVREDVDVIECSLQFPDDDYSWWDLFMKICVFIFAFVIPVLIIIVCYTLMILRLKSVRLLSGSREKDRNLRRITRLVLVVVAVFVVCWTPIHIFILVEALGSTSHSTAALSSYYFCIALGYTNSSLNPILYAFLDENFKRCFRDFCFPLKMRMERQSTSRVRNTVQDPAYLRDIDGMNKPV

Row | SMILES | Ke [1] | Ke [2] | Ke [3] | Emax [4] | EC50 [5] | Emax [6] | EC50 [7]
1 | COC(=O)[C@@H]1C[C@H](OC(=O)c2ccccc2)[C@H](O)[C@H]2[C@@]1(C)CC[C@H]1C(=O)O[C@H](c3ccoc3)C[C@]21C | 2900 nM | 1830 nM | 1050 nM | – | – | – | –
2 | COC(=O)[C@@H]1C[C@H](OC(=O)c2ccccc2)C=C2[C@@]1(C)CC[C@H]1C(=O)O[C@H](c3ccoc3)C[C@]21C | 2300 nM | 1740 nM | 580 nM | – | – | – | –
3 | COC(=O)[C@@H]1C[C@H](OC(C)=O)C=C2[C@@]1(C)CC[C@H]1C(=O)O[C@H](c3ccoc3)C[C@]21C | 400 nM | 200 nM | 570 nM | – | – | – | –
4 | COC(=O)[C@@H]1CC(=O)C=C2[C@@]1(C)CC[C@H]1C(=O)O[C@H](c3ccoc3)C[C@]21C | 3500 nM | 700 nM | 460 nM | – | – | – | –
5 | COC(=O)[C@@H]1C[C@H](OC(C)=O)[C@H](O)[C@H]2[C@@]1(C)CC[C@H]1C(=O)O[C@H](c3ccoc3)C[C@]21C | 1790 nM | 2300 nM | 240 nM | – | – | – | –
6 | COC(=O)[C@@H]1C[C@H](OC(=O)c2ccccc2)C[C@H]2[C@@]1(C)CC[C@H]1C(=O)O[C@H](c3ccoc3)C[C@]21C | 8780 nM | 4700 nM | 580 nM | – | – | – | –
7 | COC(=O)[C@@H]1C[C@H](OC(C)=O)C[C@H]2[C@@]1(C)CC[C@H]1C(=O)O[C@H](c3ccoc3)C[C@]21C | 100 nM | 170 nM | – | 93% | 280 nM | 49% | 3.34 nM
8 | COC(=O)[C@@H]1C[C@H](OC(C)=O)[C@H](OS(C)(=O)=O)[C@H]2[C@@]1(C)CC[C@H]1C(=O)O[C@H](c3ccoc3)C[C@]21C [1-ALPHA-MESYLOXYSALVINORIN A] | – | – | – | – | 2700 nM | 95% | –
